# Reference: US7776862B2, “Pyridyl and phenyl substituted piperazine-piperidines with CXCR3 antagonist activity” (Schering Corporation, priority 2005, dated 2010)
# Target: T1, human CXCR3 (N-delta 4) (Homo sapiens, UniProt P49682)
# T1 construct: CD8 leader; Flag tag; expressed in transfected cells; membranes used
# T1 sequence (P49682 5-368 limits assumed): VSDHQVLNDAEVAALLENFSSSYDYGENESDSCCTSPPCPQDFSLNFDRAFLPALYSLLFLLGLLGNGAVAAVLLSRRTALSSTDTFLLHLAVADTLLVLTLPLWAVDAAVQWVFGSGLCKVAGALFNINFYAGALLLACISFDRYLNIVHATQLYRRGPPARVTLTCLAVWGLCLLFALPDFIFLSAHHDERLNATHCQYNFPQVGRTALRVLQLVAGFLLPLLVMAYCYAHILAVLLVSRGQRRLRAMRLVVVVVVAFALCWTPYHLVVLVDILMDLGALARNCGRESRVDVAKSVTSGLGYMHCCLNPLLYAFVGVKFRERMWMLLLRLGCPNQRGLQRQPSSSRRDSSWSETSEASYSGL
# Test: Human CXCR3 (N-delta 4) scintillation proximity assay (SPA), [125I] IP-10 binding
# Details: IC50 rating; Ba/F3-hCXCR3 (N-delta 4) membranes, 25 pM [125I] IP-10
# Text: The inventive compounds can readily be evaluated to determine activity at the CXCR3 receptors by known methods, such as, for example, development of a human CXCR3 (N-delta 4) Binding Assay.
# Cloning and expression of human CXCR3 (N-delta 4):
# The DNA encoding human CXCR3 was cloned by PCR using human genomic DNA (Promega, Madison, Wis.) as a template. The PCR primers were designed based on the published sequence of human orphan receptor GPR9 (1) with incorporated restriction sites, a Kozak consensus sequence, CD8 leader and Flag tag. The PCR product was subcloned into the mammalian expression vector pME18Sneo, a derivative of the SR-alpha expression vector (designated as pME18Sneo-hCXCR3 (N-delta 4).
# IL-3-dependent mouse pro-B cells Ba/F3 were transfected by electroporation in 0.4 ml Dulbecco's PBS containing 4×10^6 cells with 20 μg of pME18Sneo-hCXCR3 (N-delta 4) plasmid DNA. Cells were pulsed at 400 Volts, 100 OHMs, 960 μFd. The transfected cells were under selection with 1 mg/ml G418 (Life Technologies, Gaithersburg, Md.). […] IP-10 (NEN Life Science Products, Boston, Mass.).
# Preparation of Ba/F3-hCXCR3 (N-delta 4) membranes:
# Ba/F3 cells expressing human CXCR3 (N-delta 4) were pelleted and resuspended in the lysis buffer containing 10 mM HEPES, pH 7.5 and Complete® protease inhibitors (1 tablet per 100 ml) (Boehringer Mannheim, Indianapolis, Ind.) at a cell density of 20×10^6 cells per ml. […] Large cellular debris was removed by centrifugation at 1,000×g. Cell membrane in the supernatant was sedimented at 100,000×g. The membrane was resuspended in the lysis buffer supplemented with 10% sucrose and stored at −80° C. Total protein concentration of the membrane was determined by BCA method from Pierce (Rockford, Ill.).
# Human CXCR3 (N-delta 4) scintillation proximity assay (SPA):
# The beads were spun down, washed once, resuspended in the binding buffer and transferred to a 96-well Isoplate (Wallac, Gaithersburg, Md.). […] IP-10 with tested compounds in a series of titration were added to start the reaction.
row,IC50,SMILES
1,> 0.1 µM,O=C(NCc1cccc(Cl)c1)c1cnc(N2CCN(C3CCN(Cc4ccc(F)cc4)CC3)CC2)c(Cl)c1 [compound 57]
2,> 0.1 µM,O=C(NCc1ccc(F)cc1F)c1cnc(N2CCN(C3CCN(Cc4ccc(F)cc4)CC3)CC2)c(Cl)c1 [compound 58]
3,> 0.1 µM,O=C(NCc1ccc(Cl)cc1Cl)c1cnc(N2CCN(C3CCN(Cc4ccc(F)cc4F)CC3)CC2)c(Cl)c1 [compound 59]
4,> 0.1 µM,O=C(NCCOc1ccccc1)c1cnc(N2CCN(C3CCN(Cc4ccc(F)cc4)CC3)CC2)c(Cl)c1 [compound 60]
5,> 0.1 µM,N#Cc1ccc(CN2CCC(N3CCN(c4ncc(C(=O)NCc5cccc(F)c5)cc4Cl)CC3)CC2)cc1 [compound 61]
6,> 0.1 µM,O=C(NCc1ccc(F)c(F)c1)c1cnc(N2CCN(C3CCN(Cc4ccc(Br)cc4F)CC3)CC2)c(Cl)c1 [compound 62]
7,> 0.1 µM,COc1ccc(CN2CCC(N3CCN(c4ncc(C(=O)NCc5ccc(Cl)cc5Cl)cc4Cl)CC3)CC2)cc1 [compound 63]
8,> 0.1 µM,N#Cc1ccc(C(=O)N2CCC(N3CCN(c4ncc(C(=O)NCc5ccc(Cl)c(Cl)c5)cc4Cl)CC3)CC2)cc1 [compound 64]
9,> 0.1 µM,O=C(NCc1ccc(Cl)c(Cl)c1)c1cnc(N2CCN(C3CCN(Cc4ccc(Br)cc4F)CC3)CC2)c(Cl)c1 [compound 65]
10,> 0.1 µM,O=C(NCc1ccc(C(F)(F)F)cc1)c1cnc(N2CCN(C3CCN(Cc4ccc(F)cc4)CC3)CC2)c(Cl)c1 [compound 66]
11,> 0.1 µM,O=C(NCc1ccc(Br)cc1)c1cnc(N2CCN(C3CCN(Cc4ccc(F)cc4F)CC3)CC2)c(Cl)c1 [compound 67]
12,> 0.1 µM,N#Cc1ccc(C(=O)N2CCC(N3CCN(c4ncc(C(=O)NCc5ccc(Br)cc5)cc4Cl)CC3)CC2)cc1 [compound 68]
13,> 0.1 µM,N#Cc1ccc(CN2CCC(N3CCN(c4ncc(C(=O)NCc5ccc(Cl)cc5Cl)cc4Cl)CC3)CC2)cc1 [compound 69]
14,> 0.1 µM,N#Cc1ccc(C(=O)N2CCC(N3CCN(c4ncc(C(=O)NCc5ccc(C(F)(F)F)cc5)cc4Br)CC3)CC2)cc1 [compound 70]
15,> 0.1 µM,O=C(NCc1ccccc1)c1cnc(N2CCN(C3CCN(Cc4ccc(Cl)c(F)c4)CC3)CC2)c(Cl)c1 [compound 71]
16,> 0.1 µM,O=C(NCc1ccccc1)c1cnc(N2CCN(C3CCN(Cc4ccc(Cl)cc4)CC3)CC2)c(Cl)c1 [compound 72]
17,> 0.1 µM,O=C(NCc1ccc(C(F)(F)F)cc1)c1cnc(N2CCN(C3CCN(Cc4ccc(Cl)c(F)c4)CC3)CC2)c(Cl)c1 [compound 73]
18,> 0.1 µM,CC(c1ccc([N+](=O)[O-])cc1)N1CCC(N2CCN(c3ncc(C(=O)NCc4ccc(Cl)c(Cl)c4)cc3Cl)CC2)CC1 (stereo not drawn) [compound 74]
19,> 0.1 µM,O=C(NCc1ccccc1)c1cnc(N2CCN(C3CCN(Cc4ccc([N+](=O)[O-])cc4)CC3)CC2)c(Cl)c1 [compound 75]
20,> 0.1 µM,CC(c1ccc([N+](=O)[O-])cc1)N1CCC(N2CCN(c3ncc(C(=O)NCc4ccc(F)c(F)c4)cc3Cl)CC2)CC1 (stereo not drawn) [compound 76]
21,> 0.1 µM,O=C(NCc1cc(Cl)cc(Cl)c1)c1cnc(N2CCN(C3CCN(Cc4ccc(F)cc4)CC3)CC2)c(Cl)c1 [compound 77]
22,> 0.1 µM,O=C(NCc1cc(Cl)cc(Cl)c1)c1cnc(N2CCN(C3CCN(Cc4ccc(F)c(F)c4)CC3)CC2)c(Cl)c1 [compound 78]
23,> 0.1 µM,O=C(NCc1ccc(F)cc1F)c1cnc(N2CCN(C3CCN(Cc4ccc(Br)cc4)CC3)CC2)c(Cl)c1 [compound 79]
24,> 0.1 µM,O=C(NCc1cc(Cl)cc(Cl)c1)c1cnc(N2CCN(C3CCN(Cc4ccc(Cl)c(F)c4)CC3)CC2)c(Cl)c1 [compound 80]
25,> 0.1 µM,N#Cc1ccc(C(=O)N2CCC(N3CCN(c4ncc(C(=O)NCc5ccc(Cl)cc5F)cc4Cl)CC3)CC2)cc1 [compound 81]
26,> 0.1 µM,O=C(NCCCc1ccccc1)c1cnc(N2CCN(C3CCN(Cc4ccc(Cl)cc4)CC3)CC2)c(Cl)c1 [compound 82]
27,> 0.1 µM,N#Cc1ccc(C(=O)N2CCC(N3CCN(c4ncc(C(=O)NCc5ccc(F)c(Cl)c5)cc4Cl)CC3)CC2)cc1 [compound 83]

row,IC50,SMILES
1,> 0.1 µM,O=C(NCc1cccc(Cl)c1)c1cnc(N2CCN(C3CCN(Cc4ccc(Cl)cc4)CC3)CC2)c(Cl)c1 [compound 84]
2,> 0.1 µM,O=C(NCc1ccc(C(F)(F)F)cc1)c1cnc(N2CCN(C3CCN(Cc4ccc(Cl)cc4)CC3)CC2)c(Cl)c1 [compound 85]
3,> 0.1 µM,N#Cc1ccc(CN2CCC(N3CCN(c4ncc(C(=O)NCc5ccc(F)cc5F)cc4Cl)CC3)CC2)cc1 [compound 86]
4,> 0.1 µM,O=C(NCc1ccc(Cl)cc1)c1cnc(N2CCN(C3CCN(Cc4ccc(F)cc4F)CC3)CC2)c(Cl)c1 [compound 87]
5,> 0.1 µM,O=C(NCc1ccc(Cl)cc1F)c1cnc(N2CCN(C3CCN(Cc4ccc(F)cc4F)CC3)CC2)c(Cl)c1 [compound 88]
6,> 0.1 µM,O=C(NCc1cc(Cl)cc(Cl)c1)c1cnc(N2CCN(C3CCN(Cc4ccc([N+](=O)[O-])cc4)CC3)CC2)c(Cl)c1 [compound 89]
7,> 0.1 µM,O=C(NCc1ccc(Cl)c(Cl)c1)c1cnc(N2CCN(C3CCN(Cc4ccc(F)cc4F)CC3)CC2)c(Cl)c1 [compound 90]
8,> 0.1 µM,O=C(NCc1cccc(F)c1)c1cnc(N2CCN(C3CCN(Cc4ccc(F)c(F)c4)CC3)CC2)c(Cl)c1 [compound 91]
9,> 0.1 µM,O=C(NCc1ccc(C(F)(F)F)cc1)c1cnc(N2CCN(C3CCN(Cc4ccc(F)c(F)c4)CC3)CC2)c(Cl)c1 [compound 92]
10,> 0.1 µM,O=C(NCc1ccc(Cl)cc1F)c1cnc(N2CCN(C3CCN(Cc4ccc(Cl)c(F)c4)CC3)CC2)c(Cl)c1 [compound 93]
11,0.025 to 0.1 µM,O=C(NCc1cccc(F)c1)c1cnc(N2CCN(C3CCN(Cc4ccc([N+](=O)[O-])cc4)CC3)CC2)c(Cl)c1 [compound 94]
12,0.025 to 0.1 µM,O=C(NCc1cccc(F)c1)c1cnc(N2CCN(C3CCN(Cc4ccc(Cl)cc4)CC3)CC2)c(Cl)c1 [compound 95]
13,0.025 to 0.1 µM,O=C(NCc1ccc(F)c(F)c1)c1cnc(N2CCN(C3CCN(Cc4ccc(F)cc4F)CC3)CC2)c(Cl)c1 [compound 96]
14,0.025 to 0.1 µM,O=C(NCc1ccc(F)cc1F)c1cnc(N2CCN(C3CCN(Cc4ccc(Cl)cc4)CC3)CC2)c(Cl)c1 [compound 97]
15,0.025 to 0.1 µM,O=C(NCc1ccc(C(F)(F)F)cc1)c1cnc(N2CCN(C3CCN(Cc4ccc([N+](=O)[O-])cc4)CC3)CC2)c(Cl)c1 [compound 98]
16,0.025 to 0.1 µM,O=C(NCc1ccc(Br)cc1)c1cnc(N2CCN(C3CCN(Cc4ccc(F)c(F)c4)CC3)CC2)c(Cl)c1 [compound 99]
17,0.025 to 0.1 µM,O=C(NCc1cccc(F)c1)c1cnc(N2CCN(C3CCN(Cc4ccc(Br)cc4)CC3)CC2)c(Cl)c1 [compound 100]
18,0.025 to 0.1 µM,N#Cc1ccc(C(=O)N2CCC(N3CCN(c4ncc(C(=O)NCc5ccc(Cl)cc5)cc4Cl)CC3)CC2)cc1 [compound 101]
19,0.025 to 0.1 µM,O=C(NCc1ccc(F)c(Cl)c1)c1cnc(N2CCN(C3CCN(Cc4ccc(F)cc4F)CC3)CC2)c(Cl)c1 [compound 102]
20,0.025 to 0.1 µM,COc1ccc(CN2CCC(N3CCN(c4ncc(C(=O)NCc5ccc(Cl)cc5)cc4Cl)CC3)CC2)cc1 [compound 103]
21,0.025 to 0.1 µM,CC(NC(=O)c1cnc(N2CCN(C3CCN(Cc4ccc(Cl)cc4)CC3)CC2)c(Cl)c1)c1ccccc1 (stereo not drawn) [compound 104]
22,0.025 to 0.1 µM,O=C(NCc1ccc(Cl)cc1F)c1cnc(N2CCN(C3CCN(Cc4ccc(Br)cc4)CC3)CC2)c(Cl)c1 [compound 105]
23,0.025 to 0.1 µM,O=C(NCc1ccc(F)cc1)c1cnc(N2CCN(C3CCN(Cc4ccc(F)c(F)c4)CC3)CC2)c(Cl)c1 [compound 106]
24,0.025 to 0.1 µM,N#Cc1ccc(CN2CCC(N3CCN(c4ncc(C(=O)NCc5ccc(F)c(Cl)c5)cc4Cl)CC3)CC2)cc1 [compound 107]
25,0.025 to 0.1 µM,O=C(NCc1ccc(F)c(Cl)c1)c1cnc(N2CCN(C3CCN(Cc4ccc(Br)cc4)CC3)CC2)c(Cl)c1 [compound 108]
26,0.025 to 0.1 µM,O=C(NCc1ccc(Br)cc1)c1cnc(N2CCN(C3CCN(Cc4ccc(F)cc4)CC3)CC2)c(Cl)c1 [compound 109]
27,0.025 to 0.1 µM,COc1ccc(CN2CCC(N3CCN(c4ncc(C(=O)NCc5ccc(Cl)cc5F)cc4Cl)CC3)CC2)cc1 [compound 111]
